What was measured:
60 cell line panel = format: cell-based
RPMI-8226 = assay: NCI 60 cell line panel screen (SRB); format: cell-based, human; conditions: RPMI-8226 (Leukemia)
HOP-92 = assay: NCI 60 cell line panel screen (SRB); format: cell-based, human
NCI-H23 = assay: NCI 60 cell line panel screen (SRB); format: cell-based, human
NCI-H322M = format: cell-based
NCI-H460 = assay: NCI 60 cell line panel screen (SRB); format: cell-based, human
COLO 205 = assay: NCI 60 cell line panel screen (SRB); format: cell-based, human
HCT-116 = assay: NCI 60 cell line panel screen (SRB); format: cell-based, human
HCT-15 = assay: NCI 60 cell line panel screen (SRB); format: cell-based, human
KM12 = assay: NCI 60 cell line panel screen (SRB); format: cell-based, human
SNB-19 = assay: NCI 60 cell line panel screen (SRB); format: cell-based, human
SNB-75 = assay: NCI 60 cell line panel screen (SRB); format: cell-based, human
U251 = assay: NCI 60 cell line panel screen (SRB); format: cell-based, human
MALME-3M = assay: NCI 60 cell line panel screen (SRB); format: cell-based, human; conditions: MALME-3M (Melanoma)
M14 = assay: NCI 60 cell line panel screen (SRB); format: cell-based, human
SK-MEL-2 = assay: NCI 60 cell line panel screen (SRB); format: cell-based, human
SK-MEL-28 = assay: NCI 60 cell line panel screen (SRB); format: cell-based, human
IGROVI = assay: NCI 60 cell line panel screen (SRB); format: cell-based, human
OVCAR-3 = assay: NCI 60 cell line panel screen (SRB); format: cell-based, human
OVCAR-5 = assay: NCI 60 cell line panel screen (SRB); format: cell-based, human
786-0 = assay: NCI 60 cell line panel screen (SRB); format: cell-based, human
ACHN = assay: NCI 60 cell line panel screen (SRB); format: cell-based, human
TK-10 = assay: NCI 60 cell line panel screen (SRB); format: cell-based, human
UO-31 = assay: NCI 60 cell line panel screen (SRB); format: cell-based, human
PC-3 = assay: NCI 60 cell line panel screen (SRB); format: cell-based, human
HS 578T = assay: NCI 60 cell line panel screen (SRB); format: cell-based, human
MDA-MB-435 = assay: NCI 60 cell line panel screen (SRB); format: cell-based, human; conditions: MDA-MB-435 (Breast Cancer)
T-47D = assay: NCI 60 cell line panel screen (SRB); format: cell-based, human
[1] = mean value over the 60 cell line panel

## CC1CCC2C(C)C(CC(O)(CO)CC3OC4OC5(C)CCC6C(C)CCC(C3C)C46OO5)OC3OC4(C)CCC1C32OO4 (centres unmarked) [Compound 5, bis-trioxane vicinal diol]
60 cell line panel
  Log10GI50 Delta: 2.03
  Log10GI50 Range: 3.47
60 cell line panel; 60 cell line panel
  Log10LC50 Delta: 0.37
  Log10LC50 Range: 0.47
  Log10TGI50 Delta: 3.50
  Log10TGI50 Range: 4.00
60 cell line panel; human cancer cell lines in general
  growth inhibition and cytotoxicity in words: strongly inhibitory but not cytotoxic
60 cell line panel; leukemia cell line RPM 1-8226, melanoma cell line SK-MEL-5, renal cancer cell line ACHN
  growth inhibition in words: selectively and strongly inhibitory
60 cell line panel; mean over panel
  Log10GI50 MG MID: −5.97
60 cell line panel; [1]
  Log10LC50 MG MID: −4.09 log10M
  Log10TGI50 MG MID: −4.50 log10M
RPMI-8226; LC50: PG=−50
  Log10LC50: >−4.00 log10M
RPMI-8226; TGI: PG=0
  Log10TGI50: >−4.00 log10M
HOP-92; HOP-92 (Non-Small Cell Lung Cancer), LC50: PG=−50
  Log10LC50: −4.05 log10M
HOP-92; HOP-92 (Non-Small Cell Lung Cancer), TGI: PG=0
  Log10TGI50: −4.49 log10M
HOP-92; Non-Small Cell Lung Cancer, HOP-92
  Log10GI50: −4.93
NCI-H23; NCI-H23 (Non-Small Cell Lung Cancer), LC50: PG=−50
  Log10LC50: >−4.00 log10M
NCI-H23; NCI-H23 (Non-Small Cell Lung Cancer), TGI: PG=0
  Log10TGI50: −4.26 log10M
NCI-H23; Non-Small Cell Lung Cancer, NCI-H23
  Log10GI50: −4.83
NCI-H322M; NCI-H322M (Non-Small Cell Lung Cancer), LC50: PG=−50
  Log10LC50: −4.16 log10M
NCI-H322M; NCI-H322M (Non-Small Cell Lung Cancer), TGI: PG=0
  Log10TGI50: −4.44 log10M
NCI-H322M; Non-Small Cell Lung Cancer, NCI-H322M
  Log10GI50: −4.71
NCI-H460; NCI-H460 (Non-Small Cell Lung Cancer), LC50: PG=−50
  Log10LC50: >−4.00 log10M
NCI-H460; NCI-H460 (Non-Small Cell Lung Cancer), TGI: PG=0
  Log10TGI50: −4.40 log10M
NCI-H460; Non-Small Cell Lung Cancer, NCI-H460
  Log10GI50: −5.02
COLO 205; COLO 205 (Colon Cancer), LC50: PG=−50
  Log10LC50: −4.15 log10M
COLO 205; COLO 205 (Colon Cancer), TGI: PG=0
  Log10TGI50: −4.87 log10M
COLO 205; Colon Cancer, COLO 205
  Log10GI50: <−8.00
HCT-116; Colon Cancer, HCT-116
  Log10GI50: −4.72
HCT-116; HCT-116 (Colon Cancer), LC50: PG=−50
  Log10LC50: >−4.00 log10M
HCT-116; HCT-116 (Colon Cancer), TGI: PG=0
  Log10TGI50: >−4.00 log10M
HCT-15; Colon Cancer, HCT-15
  Log10GI50: −5.28
HCT-15; HCT-15 (Colon Cancer), LC50: PG=−50
  Log10LC50: −4.03 log10M
HCT-15; HCT-15 (Colon Cancer), TGI: PG=0
  Log10TGI50: −4.53 log10M
KM12; Colon Cancer, KM12
  Log10GI50: <−8.00
KM12; KM12 (Colon Cancer), LC50: PG=−50
  Log10LC50: >−4.00 log10M
KM12; KM12 (Colon Cancer), TGI: PG=0
  Log10TGI50: −4.47 log10M
SNB-19; CNS Cancer, SNB-19
  Log10GI50: −4.82
SNB-19; SNB-19 (CNS Cancer), LC50: PG=−50
  Log10LC50: >−4.00 log10M
SNB-19; SNB-19 (CNS Cancer), TGI: PG=0
  Log10TGI50: −4.34 log10M
SNB-75; CNS Cancer, SNB-75
  Log10GI50: −4.53
SNB-75; SNB-75 (CNS Cancer), LC50: PG=−50
  Log10LC50: >−4.00 log10M
SNB-75; SNB-75 (CNS Cancer), TGI: PG=0
  Log10TGI50: −4.04 log10M
U251; CNS Cancer, U251
  Log10GI50: −7.68
U251; U251 (CNS Cancer), LC50: PG=−50
  Log10LC50: −4.08 log10M
U251; U251 (CNS Cancer), TGI: PG=0
  Log10TGI50: −4.61 log10M
MALME-3M; LC50: PG=−50
  Log10LC50: −4.11 log10M
MALME-3M; TGI: PG=0
  Log10TGI50: −4.50 log10M
M14; M14 (Melanoma), LC50: PG=−50
  Log10LC50: >−4.00 log10M
M14; M-14 (Melanoma), TGI: PG=0
  Log10TGI50: >−4.00 log10M
M14; Melanoma, M14
  Log10GI50: −4.59
SK-MEL-2; Melanoma, SK-MEL-2
  Log10GI50: −4.94
SK-MEL-2; SK-MEL2 (Melanoma), LC50: PG=−50
  Log10LC50: −4.12 log10M
SK-MEL-2; SK-MEL-2 (Melanoma), TGI: PG=0
  Log10TGI50: −4.53 log10M
SK-MEL-28; Melanoma, SK-MEL-28
  Log10GI50: −4.79
SK-MEL-28; SK-MEL-28 (Melanoma), LC50: PG=−50
  Log10LC50: >−4.00 log10M
SK-MEL-28; SK-MEL-28 (Melanoma), TGI: PG=0
  Log10TGI50: −4.31 log10M
IGROVI; IGROVI (Ovarian Cancer), LC50: PG=−50
  Log10LC50: −4.17 log10M
IGROVI; IGROVI (Ovarian Cancer), TGI: PG=0
  Log10TGI50: −4.57 log10M
IGROVI; Ovarian Cancer, IGROVI
  Log10GI50: −4.97
OVCAR-3; OVCAR-3 (Ovarian Cancer), LC50: PG=−50
  Log10LC50: >−4.00 log10M
OVCAR-3; OVCAR-3 (Ovarian Cancer), TGI: PG=0
  Log10TGI50: −4.45 log10M
OVCAR-3; Ovarian Cancer, OVCAR-3
  Log10GI50: −5.09
OVCAR-5; OVCAR-5 (Ovarian Cancer), LC50: PG=−50
  Log10LC50: >−4.00 log10M
OVCAR-5; OVCAR-5 (Ovarian Cancer), TGI: PG=0
  Log10TGI50: −4.33 log10M
OVCAR-5; Ovarian Cancer, OVCAR-5
  Log10GI50: −4.78
786-0; 786-0 (Renal Cancer), LC50: PG=−50
  Log10LC50: >−4.00 log10M
786-0; 786-0 (Renal Cancer), TGI: PG=0
  Log10TGI50: −4.36 log10M
786-0; Renal Cancer, 786-0
  Log10GI50: −4.87
ACHN; ACHN (Renal Cancer), LC50: PG=−50
  Log10LC50: 4.47 log10M
ACHN; ACHN (Renal Cancer), TGI: PG=0
  Log10TGI50: <−8.00 log10M
ACHN; Renal Cancer, ACHN
  Log10GI50: <−8.00
TK-10; Renal Cancer, TK-10
  Log10GI50: −4.91
TK-10; TK-10 (Renal Cancer), LC50: PG=−50
  Log10LC50: −4.06 log10M
TK-10; TK-10 (Renal Cancer), TGI: PG=0
  Log10TGI50: −4.49 log10M
UO-31; Renal Cancer, UO-31
  Log10GI50: −7.38
UO-31; UO-31 (Renal Cancer), LC50: PG=−50
  Log10LC50: −4.26 log10M
UO-31; UO-31 (Renal Cancer), TGI: PG=0
  Log10TGI50: −4.68 log10M
PC-3; PC-3 (Prostate Cancer), LC50: PG=−50
  Log10LC50: >−4.00 log10M
PC-3; PC-3 (Prostate Cancer), TGI: PG=0
  Log10TGI50: −4.49 log10M
PC-3; Prostate Cancer, PC-3
  Log10GI50: <−8.00
HS 578T; Breast Cancer, HS 578T
  Log10GI50: −4.72
HS 578T; HS 578T (Breast Cancer), LC50: PG=−50
  Log10LC50: >−4.00 log10M
HS 578T; HS 578T (Breast Cancer), TGI: PG=0
  Log10TGI50: −4.08 log10M
MDA-MB-435; LC50: PG=−50
  Log10LC50: −4.09 log10M
MDA-MB-435; TGI: PG=0
  Log10TGI50: −4.54 log10M
T-47D; Breast Cancer, T-47D
  Log10GI50: −7.23
T-47D; T-47D (Breast Cancer), LC50: PG=−50
  Log10LC50: >−4.00 log10M
T-47D; T-47D (Breast Cancer), TGI: PG=0
  Log10TGI50: −4.48 log10M

From patent US7417156B2, “Orally active, antimalarial, anticancer, artemisinin-derived trioxane dimers” (Johns Hopkins University, priority 2002, dated 2008)
